# Patent publication US7741341B2, “Benzimidazole-derivatives as factor Xa inhibitors” (sanofi-aventis Deutschland GmbH, priority 2003, dated 2010)
# Biological target: T1, human factor Xa (Homo sapiens, UniProt P00742)
# T1 construct: human factor Xa (Enzyme Research Laboratories, Inc; South Bend, Ind.); purchased Enzyme Research Laboratories, Inc; South Bend, Ind
# Assay: Factor Xa assay (chromogenic, substrate S-2765)
# Format: biochemical
# Conditions: read-out: Ki(FXa)
# Procedure: Purified enzymes were used in chromogenic assays.
# The IC50 was determined by combining in appropriate wells of a Costar half-area microtiter plate 25 μl human factor Xa (Enzyme Research Laboratories, Inc.; South Bend, Ind.) in TBS-PEG; 40 μl 10% (v/v) DMSO in TBS-PEG (uninhibited control) or various concentrations of the compound to be tested diluted in 10% (v/v) DMSO in TBS-PEG; and substrate S-2765 (N(α)-benzyloxycarbonyl-D-Arg-Gly-L-Arg-p-nitroanilide; Kabi Pharmacia, Inc.; Franklin, Ohio) in TBS-PEG.
# The assay was performed by pre-incubating the compound of formula I plus enzyme for 10 min. Then the assay was initiated by adding substrate to obtain a final volume of 100 μl. […] The enzyme concentration was 0.5 nM and substrate concentration was 140 μM.
# T1 sequence (P00742 235-488 limits assumed): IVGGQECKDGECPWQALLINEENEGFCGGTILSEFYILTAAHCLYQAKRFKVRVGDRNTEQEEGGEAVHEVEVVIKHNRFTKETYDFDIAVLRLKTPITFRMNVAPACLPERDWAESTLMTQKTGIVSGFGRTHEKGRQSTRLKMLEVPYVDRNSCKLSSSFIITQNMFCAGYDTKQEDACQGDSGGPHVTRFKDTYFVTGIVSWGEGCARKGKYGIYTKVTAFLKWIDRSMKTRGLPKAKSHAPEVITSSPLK
# T1 sequence (P00742 41-179 partner limits assumed): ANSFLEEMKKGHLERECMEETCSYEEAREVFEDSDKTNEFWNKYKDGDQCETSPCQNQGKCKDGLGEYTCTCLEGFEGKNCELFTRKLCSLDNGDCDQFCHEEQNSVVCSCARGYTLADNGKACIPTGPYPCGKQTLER
row,Structure (SMILES),Ki
1,"O=C(NC1CCN(c2ccncn2)CC1)c1nc2ccccc2n1Cc1cc(-c2ccc(Cl)s2)on1 [Example 4, 1-[5-(5-Chloro-thiophen-2-yl)-isoxazol-3-ylmethyl]-1H-benzoimidazole-2-carboxylic acid (1-pyrimidin-4-yl-piperidin-4-yl)-amide]",59.2 nM
2,"O=C(Cn1c(C(=O)Nc2ccc(-n3ccc(=O)cc3)cc2)nc2ccccc21)Nc1ccc(Cl)cn1 [Example 39, 1-[(5-Chloro-pyridin-2-ylcarbamoyl)-methyl]-1H-benzoimidazole-2-carboxylic acid [4-(4-oxo-4H-pyridin-1-yl)-phenyl]-amide]",47 nM
3,"COC(=O)c1ccc2nc(C(=O)NC3CCN(C(C)C)CC3)n(CC(=O)Nc3ccc(Cl)cn3)c2c1 [Example 17b, 3-[(5-Chloro-pyridin-2-ylcarbamoyl)-methyl]-2-(1-isopropyl-piperidin-4-ylcarbamoyl)-3H-benzoimidazole-5-carboxylic acid methyl ester]",371 nM
4,"COC(=O)c1cccc2c1nc(C(=O)NC1CCN(C(C)C)CC1)n2CC(=O)Nc1ccc(Cl)cn1 [Example 15, 1-[(5-Chloro-pyridin-2-ylcarbamoyl)-methyl]-2-(1-isopropyl-piperidin-4-ylcarbamoyl)-1H-benzoimidazole-4-carboxylic acid methyl ester]",11.5 nM
5,"COC(=O)c1ccc2nc(C(=O)NC3CCN(C(C)C)CC3)n(Cc3cc(-c4ccc(Cl)s4)on3)c2c1 [Example 5b, 3-[5-(5-Chloro-thiophen-2-yl)-isoxazol-3-ylmethyl]-2-(1-isopropyl-piperidin-4-ylcarbamoyl)-3H-benzoimidazole-5-carboxylic acid methyl ester]",175 nM
6,"O=C(Cn1c(C(=O)Nc2ccc(-n3ccc(=O)[nH]c3=O)cc2)nc2ccccc21)Nc1ccc(Cl)cn1 [Example 44, 1-[(5-Chloro-pyridin-2-ylcarbamoyl)-methyl]-1H-benzoimidazole-2-carboxylic acid [4-(2,4-dioxo-3,4-dihydro-2H-pyrimidin-1-yl)-phenyl]-amide]",28 nM
7,"CC(C)N1CCC(NC(=O)c2nc3ccccc3n2CC(=O)Nc2ccc(Cl)cc2)CC1 [Example 2, 1-[(4-Chloro-phenylcarbamoyl)-methyl]-1H-benzoimidazole-2-carboxylic acid (1-isopropyl-piperidin-4-yl)-amide]",3.1 nM
8,"CC(C)N1CCC(NC(=O)c2nc3cc(C(=O)O)ccc3n2Cc2cc(-c3ccc(Cl)s3)on2)CC1 [Example 6, 1-[5-(5-Chloro-thiophen-2-yl)-isoxazol-3-ylmethyl]-2-(1-isopropyl-piperidin-4-ylcarbamoyl)-1H-benzoimidazole-5-carboxylic acid]",3 nM
9,"CC(C)N1CCC(NC(=O)c2nc3c(CO)cccc3n2CC(=O)Nc2ccc(Cl)cn2)CC1 [Example 71, 1-[(5-Chloro-pyridin-2-ylcarbamoyl)-methyl]-4-hydroxymethyl-1H-benzoimidazole-2-carboxylic acid (1-isopropyl-piperidin-4-yl)-amide]",7 nM
10,"CCOC(=O)OC(C)OC(=O)c1ccc2c(c1)nc(C(=O)NC1CCN(C(C)C)CC1)n2CC(=O)Nc1ccc(Cl)cn1 (stereo not drawn) [Example 62, 1-[(5-Chloro-pyridin-2-ylcarbamoyl)-methyl]-2-(1-isopropyl-piperidin-4-ylcarbamoyl)-1H-benzoimidazole-5-carboxylic acid 1-ethoxycarbonyloxy-ethyl ester]",19 nM
11,"CN1C2CCC1CC(NC(=O)c1nc3ccccc3n1Cc1cc(-c3ccc(Cl)s3)on1)C2 (stereo not drawn) [Example 40, 1-[5-(5-Chloro-thiophen-2-yl)-isoxazol-3-ylmethyl]-1H-benzoimidazole-2-carboxylic acid (8-methyl-8-aza-bicyclo[3.2.1]oct-3-yl)-amide]",20 nM
12,"CCOC(=O)OC(C)OC(=O)c1ccc2c(c1)nc(C(=O)NC1CCN(C(C)C)CC1)n2Cc1cc(-c2ccc(Cl)s2)on1 (stereo not drawn) [Example 27, 1-[5-(5-Chloro-thiophen-2-yl)-isoxazol-3-ylmethyl]-2-(1-isopropyl-piperidin-4-ylcarbamoyl)-1H-benzoimidazole-5-carboxylic acid 1-ethoxycarbonyloxy-ethyl ester]",12.5 nM
13,"CC(C)N1CCC(NC(=O)c2nc3cccc(C(=O)O)c3n2Cc2cc(-c3ccc(Cl)s3)on2)CC1 [Example 13, 3-[5-(5-Chloro-thiophen-2-yl)-isoxazol-3-ylmethyl]-2-(1-isopropyl-piperidin-4-ylcarbamoyl)-3H-benzoimidazole-4-carboxylic acid]",299 nM
14,"COC(=O)c1sc(OCC(F)(F)F)c2nc(C(=O)NC3CCN(C(C)C)CC3)n(Cc3cc(-c4ccc(Cl)s4)on3)c12 [Example 105, 3-[5-(5-Chloro-thiophen-2-yl)-isoxazol-3-ylmethyl]-2-(1-isopropyl-piperidin-4-ylcarbamoyl)-6-(2,2,2-trifluoro-ethoxy)-3H-thieno[3,4-d]imidazole-4-carboxylic acid methyl ester]",54500 nM

# Further lines, results first:
row,Ki,Structure (SMILES)
1,462 nM,"O=C(Nc1ccc(N2CCOC2=O)cc1)c1nc2ccccc2n1Cc1cc(-c2ccc(Cl)s2)on1 [Example 42, 1-[5-(5-Chloro-thiophen-2-yl)-isoxazol-3-ylmethyl]-1H-benzoimidazole-2-carboxylic acid [4-(2-oxo-oxazolidin-3-yl)-phenyl]-amide]"
2,15 nM,"COCCOC(=O)c1cccc2c1nc(C(=O)NC1CCN(C(C)C)CC1)n2CC(=O)Nc1ccc(Cl)cn1 [Example 70, 1-[(5-Chloro-pyridin-2-ylcarbamoyl)-methyl]-2-(1-isopropyl-piperidin-4-ylcarbamoyl)-1H-benzoimidazole-4-carboxylic acid 2-methoxy-ethyl ester]"
3,22.5 nM,"CC(C)N1CCC(NC(=O)c2nc3c(c(=O)n(C)c(=O)n3C)n2Cc2cc(-c3ccc(Cl)s3)on2)CC1 [Example 92, 7-[5-(5-Chloro-thiophen-2-yl)-isoxazol-3-ylmethyl]-1,3-dimethyl-2,6-dioxo-2,3,6,7-tetrahydro-1H-purine-8-carboxylic acid (1-isopropyl-piperidin-4-yl)-amide]"
4,1 nM,"CC(C)N1CCC(NC(=O)c2nc3cc(C(=O)OCC(=O)O)ccc3n2Cc2cc(-c3ccc(Cl)s3)on2)CC1 [Example 79, 1-[5-(5-Chloro-thiophen-2-yl)-isoxazol-3-ylmethyl]-2-(1-isopropyl-piperidin-4-ylcarbamoyl)-1H-benzoimidazole-5-carboxylic acid carboxymethyl ester]"
5,20 nM,"CC(C)N1CCC(NC(=O)c2nc3c(C(=O)N4CCCOCC4)scc3n2CC(=O)Nc2ccc(Cl)cn2)CC1 [Example 104, 3-[(5-Chloro-pyridin-2-ylcarbamoyl)-methyl]-6-([1,4]oxazepane-4-carbonyl)-3H-thieno[3,4-d]imidazole-2-carboxylic acid (1-isopropyl-piperidin-4-yl)-amide]"
6,121 nM,"CC(C)N1CCC(NC(=O)c2nc3ccc(C(=O)OCCO)cc3n2Cc2cc(-c3ccc(Cl)s3)on2)CC1 [Example 65, 3-[5-(5-Chloro-thiophen-2-yl)-isoxazol-3-ylmethyl]-2-(1-isopropyl-piperidin-4-ylcarbamoyl)-3H-benzoimidazole-5-carboxylic acid 2-hydroxy-ethyl ester]"
7,3.5 nM,"CC(C)N1CCC(NC(=O)c2nc3cc(C(=O)OCCO)ccc3n2Cc2cc(-c3ccc(Cl)s3)on2)CC1 [Example 78, 1-[5-(5-Chloro-thiophen-2-yl)-isoxazol-3-ylmethyl]-2-(1-isopropyl-piperidin-4-ylcarbamoyl)-1H-benzoimidazole-5-carboxylic acid 2-hydroxy-ethyl ester]"
8,6 nM,"O=C(Nc1ccc(-n2ccc(=O)[nH]c2=O)cc1)c1nc2ccccc2n1Cc1cc(-c2ccc(Cl)s2)on1 [Example 41, 1-[5-(5-Chloro-thiophen-2-yl)-isoxazol-3-ylmethyl]-1H-benzoimidazole-2-carboxylic acid [4-(2,4-dioxo-3,4-dihydro-2H-pyrimidin-1-yl)-phenyl]-amide]"
9,1 nM,"COC(=O)c1cccc2nc(C(=O)NC3CCN(C(C)C)CC3)n(Cc3cc(-c4ccc(Cl)s4)on3)c12 [Example 11b, 3-[5-(5-Chloro-thiophen-2-yl)-isoxazol-3-ylmethyl]-2-(1-isopropyl-piperidin-4-ylcarbamoyl)-3H-benzoimidazole-4-carboxylic acid methyl ester]"
10,141 nM,"O=C(Nc1ccc(N2CCNCC2=O)cc1)c1nc2ccccc2n1Cc1cc(-c2ccc(Cl)s2)on1 [Example 50, 1-[5-(5-Chloro-thiophen-2-yl)-isoxazol-3-ylmethyl]-1H-benzoimidazole-2-carboxylic acid [4-(2-oxo-piperazin-1-yl)-phenyl]-amide]"
11,12.5 nM,"COCCOCc1cccc2c1nc(C(=O)NC1CCN(C(C)C)CC1)n2CC(=O)Nc1ccc(Cl)cn1 [Example 72, 1-[(5-Chloro-pyridin-2-ylcarbamoyl)-methyl]-4-(2-methoxy-ethoxymethyl)-1H-benzoimidazole-2-carboxylic acid (1-isopropyl-piperidin-4-yl)-amide]"
12,2.6 nM,"CC(C)N1CCC(NC(=O)c2nc3c(C(=O)N4C(C)CCCC4C)cccc3n2CC(=O)Nc2ccc(Cl)cn2)CC1 (stereo not drawn) [Example 75, 1-[(5-Chloro-pyridin-2-ylcarbamoyl)-methyl]-4-(2,6-dimethyl-piperidine-1-carbonyl)-1H-benzoimidazole-2-carboxylic acid (1-isopropyl-piperidin-4-yl)-amide]"
13,4 nM,"CC(C)N1CCC(NC(=O)c2nc3c(OCCO)cccc3n2CC(=O)Nc2ccc(Cl)cn2)CC1 [Example 110, 1-[(5-Chloro-pyridin-2-ylcarbamoyl)-methyl]-4-(2-hydroxy-ethoxy)-1H-benzoimidazole-2-carboxylic acid (1-isopropyl-piperidin-4-yl)-amide]"
